Columns and labels:
Conditions in all cases: 72 h
Calu-3 [1] = experiment: cell viability relative to DMSO; higher = less toxic
HepG2 [2] = experiment: as above
Vero E6 [3] = experiment: as above
U2OS [4] = experiment: as above
Caco-2 [5] = experiment: as above
Calu-3 [6] = experiment: drug sensitivity score (DSS) for viability; higher = more toxic; extreme values may be limits of the assay
HepG2 [7] = experiment: as above
Vero E6 [8] = experiment: as above
U2OS [9] = experiment: as above
Caco-2 [10] = experiment: as above
Caco-2 [11] = experiment: relative viability EC50 (midpoint between 100% and the lowest measured viability); higher = less toxic
Calu-3 [12] = experiment: as above
HepG2 [13] = experiment: as above
U2OS [14] = experiment: as above

| SMILES | cell viability (Calu-3 [1]; 1 nM) | cell viability (Calu-3 [1]; 10 nM) | cell viability (Calu-3 [1]; 100 nM) | cell viability (Calu-3 [1]; 1000 nM) | cell viability (Calu-3 [1]; 10000 nM) | cell viability (HepG2 [2]; 1 nM) | cell viability (HepG2 [2]; 10 nM) | cell viability (HepG2 [2]; 100 nM) | cell viability (HepG2 [2]; 1000 nM) | cell viability (HepG2 [2]; 10000 nM) | cell viability (Vero E6 [3]; 1 nM) | cell viability (Vero E6 [3]; 10 nM) | cell viability (Vero E6 [3]; 100 nM) | cell viability (Vero E6 [3]; 1000 nM) | cell viability (Vero E6 [3]; 10000 nM) | cell viability (U2OS [4]; 1 nM) | cell viability (U2OS [4]; 10 nM) | cell viability (U2OS [4]; 100 nM) | cell viability (U2OS [4]; 1000 nM) | cell viability (U2OS [4]; 10000 nM) | cell viability (Caco-2 [5]; 1 nM) | cell viability (Caco-2 [5]; 10 nM) | cell viability (Caco-2 [5]; 100 nM) | cell viability (Caco-2 [5]; 1000 nM) | cell viability (Caco-2 [5]; 10000 nM) | drug sensitivity score (Calu-3 [6]) | drug sensitivity score (HepG2 [7]) | drug sensitivity score (Vero E6 [8]) | drug sensitivity score (U2OS [9]) | drug sensitivity score (Caco-2 [10]) | relative viability EC50 (Caco-2 [11]) | relative viability EC50 (Calu-3 [12]) | relative viability EC50 (HepG2 [13]) | relative viability EC50 (U2OS [14]) |
| --- | --- | --- | --- | --- | --- | --- | --- | --- | --- | --- | --- | --- | --- | --- | --- | --- | --- | --- | --- | --- | --- | --- | --- | --- | --- | --- | --- | --- | --- | --- | --- | --- | --- | --- |
| Cc1c(N)nc([C@H](CC(N)=O)NC[C@H](N)C(N)=O)nc1C(=O)N[C@H](C(=O)N[C@H](C)[C@@H](O)[C@H](C)C(=O)N[C@H](C(=O)NCCc1nc(-c2nc(C(=O)NCCCNCCCCN)cs2)cs1)[C@@H](C)O)[C@@H](O[C@@H]1O[C@@H](CO)[C@@H](O)[C@H](O)[C@@H]1O[C@@H]1O[C@H](CO)[C@@H](O)[C@H](OC(N)=O)[C@@H]1O)c1cnc[nH]1 [bleomycetin] | 94% | 95.4% | 93.1% | 76.5% | 51.3% | 99.4% | 104% | 98.1% | 82.7% | 59.9% | 106% | 103% | 106% | 82.4% | 64.2% | 101% | 97.7% | 99.8% | 83.3% | 68.7% | 106% | 102% | 100% | 90.9% | 78.7% | 5.2 | 4 | 3.9 | 3.4 | 1.7 | > 10 µM | – | – | – |
| COc1ccc2c(c1OC)C(=O)O[C@@H]2[C@H]1c2cc3c(cc2CCN1C)OCO3 [hydrastine-(1R,9S)] | – | – | – | – | – | – | – | – | – | – | – | – | – | – | – | – | – | – | – | – | – | – | – | – | – | 0 | 0 | 0 | 0 | – | – | – | – | – |
| Cn1cc(-c2ccncc2)c(-c2ccc(OCc3ccc4ccccc4n3)cc2)n1 | 104% | 105% | 103% | 98.9% | 77.1% | 105% | 99.2% | 108% | 95.6% | 91.5% | – | – | – | – | – | 94% | 101% | 96.7% | 94.6% | 87.5% | 91.1% | 106% | 90.5% | 106% | 67.2% | 0.9 | 0 | – | 0 | 1.2 | – | > 10 µM | > 10 µM | > 10 µM |
| O=C(O)COc1ccc(/C=C2\SC(=O)NC2=O)cc1 [TCS-3035] | 101% | 97.6% | 97.3% | 103% | 106% | 103% | 104% | 103% | 105% | 95.3% | – | – | – | – | – | 102% | 94.9% | 97.8% | 99.8% | 100% | 105% | 107% | 97.3% | 104% | 102% | 0 | 0 | – | 0 | 0 | > 10 µM | > 10 µM | > 10 µM | > 10 µM |
| O=C(O)[C@@H]1C[C@@H](C2CCCCC2)CN1C(=O)CP(=O)(O)CCCCc1ccccc1 [fosinoprilat] | 99.4% | 98.8% | 98.4% | 95.1% | 108% | 105% | 104% | 96.2% | 101% | 101% | – | – | – | – | – | 99.6% | 93.7% | 97.5% | 95% | 97.1% | 97.6% | 88.5% | 105% | 90.4% | 102% | 0 | 0 | – | 0 | 0 | > 10 µM | > 10 µM | > 10 µM | > 10 µM |
| Cc1cc(N2CCOCC2)ccc1Nc1nc(NC2CCCCC2)c2nc[nH]c2n1 | 100% | 98% | 98.6% | 98.4% | 85% | 99.1% | 107% | 98% | 51.8% | 43.5% | 96.9% | 99.6% | 98.2% | 60.1% | 60.8% | 97% | 104% | 101% | 68% | 55.4% | 102% | 104% | 101% | 88.5% | 69.4% | 0.4 | 9.1 | 7.4 | 6.1 | 2.9 | – | > 10 µM | 0.455 µM | – |
| CC[C@@H](C(N)=O)N1CCCC1=O [levetiracetam] | 87.4% | 91.8% | 98.6% | 103% | 103% | 93.2% | 105% | 90% | 104% | 92% | – | – | – | – | – | 103% | 98.2% | 101% | 97.2% | 103% | 96.2% | 91.6% | 100% | 95.2% | 101% | 0 | 0 | – | 0 | 0 | > 10 µM | > 10 µM | > 10 µM | > 10 µM |
| NC(=O)[C@@H](CC1CC1)[C@@H](CCC(F)(F)F)C(=O)N[C@H]1N=C(c2ccccc2)c2cccc(F)c2NC1=O | 110% | 99.4% | 91.9% | 85.8% | 99.1% | 94.3% | 106% | 105% | 91.9% | 106% | – | – | – | – | – | 99% | 96.4% | 94.1% | 94.1% | 92.7% | 97.7% | 98.4% | 96.5% | 96.2% | 85.2% | 0 | 0 | – | 0 | 0.4 | > 10 µM | > 10 µM | > 10 µM | > 10 µM |
| C=C(C)[C@H]1CN[C@H](C(=O)O)[C@H]1CC(=O)O [kainic-acid] | 93.4% | 88.2% | 93.5% | 90.3% | 98.3% | 106% | 105% | 110% | 102% | 93.7% | – | – | – | – | – | 99.7% | 99.4% | 101% | 99.8% | 95.6% | 97.5% | 95.7% | 96.7% | 104% | 96.8% | 0 | 0 | – | 0 | 0 | > 10 µM | > 10 µM | > 10 µM | > 10 µM |
| NS(=O)(=O)c1ccc(NC(=O)Nc2ccc(F)cc2)cc1 [U-104] | 112% | 91.7% | 107% | 101% | 108% | 102% | 106% | 103% | 89.8% | 104% | – | – | – | – | – | – | – | – | – | – | 99.4% | 94.4% | 96.9% | 105% | 101% | 0 | 0 | – | – | 0 | > 10 µM | > 10 µM | > 10 µM | – |
| O=c1ccc2ccccc2o1 [coumarin] | 97.7% | 90.9% | 95.6% | 105% | 88.6% | 91.8% | 107% | 106% | 96.7% | 111% | – | – | – | – | – | 100% | 98.1% | 96.1% | 99.1% | 98.1% | 96.5% | 97.6% | 99.2% | 95.9% | 95.5% | 0 | 0 | – | 0 | 0 | > 10 µM | > 10 µM | > 10 µM | > 10 µM |
| Cc1ccc(-n2nc(C(C)(C)C)cc2NC(=O)NCc2cc(F)ccc2Oc2ccc3c(cnn3CCO)c2)cc1 [pexmetinib] | 100% | 85.9% | 93.2% | 95.8% | 91% | 96.9% | 109% | 104% | 90.7% | 0.1% | 97.6% | 100% | 91.2% | 104% | 64.7% | 96.8% | 90.8% | 97.1% | 80.9% | 54.3% | 100% | 93.2% | 91.4% | 84.3% | 81.4% | 0 | 7 | 1.4 | 4.5 | 2.1 | > 10 µM | > 10 µM | 2.4 µM | – |
| COc1ccncc1C(=O)NC(=O)Nc1ccc(-c2ccccc2)c(C(F)(F)F)c1 [S1P1-agonist-III] | 110% | 97.5% | 93.2% | 99.2% | 91.1% | 95.3% | 104% | 95.5% | 107% | 97.1% | – | – | – | – | – | 106% | 107% | 101% | 98.4% | 98.2% | 100% | 90.6% | 95.5% | 99.1% | 87.8% | 0 | 0 | – | 0 | 0 | > 10 µM | > 10 µM | > 10 µM | > 10 µM |
| CN(CC(=O)O)C(=N)N [creatine] | – | – | – | – | – | – | – | – | – | – | – | – | – | – | – | – | – | – | – | – | – | – | – | – | – | 0 | 0 | – | 0 | – | – | – | – | – |
| CC(C)(O)c1coc(S(=O)(=O)NC(=O)Nc2c3c(cc4c2CCC4)CCC3)c1 [MCC950] | 120% | 105% | 100% | 103% | 99.3% | 97.9% | 95.9% | 102% | 113% | 105% | – | – | – | – | – | 104% | 103% | 105% | 97.7% | 102% | 106% | 96.1% | 102% | 96.9% | 104% | 0 | 0 | – | 0 | 0 | > 10 µM | > 10 µM | > 10 µM | > 10 µM |
| CC(=O)N[C@@H](CC(C)C)C(=O)O [acetyl-l-leucine] | – | – | – | – | – | 95.8% | 99.2% | 98.4% | 88.3% | 94.7% | – | – | – | – | – | 101% | 99.9% | 95.2% | 101% | 96.2% | 95.7% | 103% | 85% | 80.3% | 96.6% | – | 0 | – | 0 | 4.1 | > 10 µM | – | > 10 µM | > 10 µM |
| O=c1[nH]c(=O)n([C@H]2C[C@H](O)[C@@H](CO)O2)cc1C(F)(F)F [trifluridine] | 106% | 121% | 103% | 100% | 97.7% | 95.9% | 93.2% | 104% | 64.8% | 36.1% | 101% | 105% | 108% | 102% | 69.5% | – | – | – | – | – | 93.3% | 93.9% | 98.4% | 94% | 81.7% | 0 | 7.8 | 1.2 | – | 0.9 | > 10 µM | > 10 µM | 0.923 µM | – |

Reference: the supplement of paper PMC13380429
